Several values for one entry are separate records, joined by “and”; a condition that tells them apart may be missing. Equal values may be shown once.
Columns and labels:
Assay type in all cases: cell-based
USP7 [1] = molecular target: T1, USP7 (Homo sapiens, UniProt Q93009); assay: USP7 degradation, Western blot densitometry, Panc89 cells; conditions: for USP7 degradation (in words): 24 h; for DC50: read-out: DC50 (half-maximal degradation concentration)
T1 construct: allowed the analysis of endogenous USP7 degradation in both cell lines; endogenous in cells; host or cells: Panc89 (PDAC) and Ma-Mel-47 (melanoma) cells
T1 sequence (Q93009 whole entry): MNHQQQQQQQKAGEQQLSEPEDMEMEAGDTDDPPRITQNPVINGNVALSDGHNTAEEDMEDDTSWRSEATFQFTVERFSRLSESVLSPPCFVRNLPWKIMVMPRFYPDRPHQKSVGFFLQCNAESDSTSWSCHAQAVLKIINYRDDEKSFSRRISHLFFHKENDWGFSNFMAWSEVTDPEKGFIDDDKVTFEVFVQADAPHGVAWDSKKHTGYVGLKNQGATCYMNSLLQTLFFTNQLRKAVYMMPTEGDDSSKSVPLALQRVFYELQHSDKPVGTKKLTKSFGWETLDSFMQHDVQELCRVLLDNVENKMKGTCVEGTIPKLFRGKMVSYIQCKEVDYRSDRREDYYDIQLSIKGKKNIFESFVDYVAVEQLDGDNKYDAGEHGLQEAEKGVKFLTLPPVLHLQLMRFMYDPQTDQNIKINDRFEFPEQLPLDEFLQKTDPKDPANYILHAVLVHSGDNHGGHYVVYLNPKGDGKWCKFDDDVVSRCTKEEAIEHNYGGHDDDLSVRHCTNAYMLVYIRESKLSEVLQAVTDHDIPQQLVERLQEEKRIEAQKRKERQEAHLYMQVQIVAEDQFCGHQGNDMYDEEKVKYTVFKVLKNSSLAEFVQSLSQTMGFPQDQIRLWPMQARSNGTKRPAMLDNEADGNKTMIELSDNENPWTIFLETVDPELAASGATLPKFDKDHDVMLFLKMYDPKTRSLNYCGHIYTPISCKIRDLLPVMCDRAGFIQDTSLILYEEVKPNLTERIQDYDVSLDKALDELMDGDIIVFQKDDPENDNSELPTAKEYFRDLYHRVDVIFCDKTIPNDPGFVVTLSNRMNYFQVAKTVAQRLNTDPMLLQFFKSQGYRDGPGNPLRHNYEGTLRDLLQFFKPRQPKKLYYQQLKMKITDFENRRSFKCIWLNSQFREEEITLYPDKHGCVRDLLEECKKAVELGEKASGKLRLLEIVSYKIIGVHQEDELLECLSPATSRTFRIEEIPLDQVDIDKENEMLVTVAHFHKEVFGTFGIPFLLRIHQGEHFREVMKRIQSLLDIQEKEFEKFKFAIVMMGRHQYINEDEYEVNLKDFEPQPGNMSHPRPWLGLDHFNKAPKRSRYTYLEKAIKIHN
Method: (§1) The melanoma cell line Ma-Mel-47 (established previously[57] from metastatic lesions from patient tumor tissues after written informed consent) and the PDAC cell line Panc89 (RRID: CVCL_4056, also referenced as T3M-4[58]) were cultured in a humidified incubator with 5% CO2 at 37 °C in RPMI1640 (Ma-Mel-47) / DMEM (Panc89) medium containing 10% (v/v) fetal calf serum (FCS) and penicillin/streptomycin (all Gibco, Thermo Fisher Scientific). Studies on human material were approved by the institutional review board. […] Testing for mycoplasma was performed by PCR monthly. To confirm cell identity, STR analysis was performed by the Microsynth Seqlab GmbH.
(§2) To prepare samples for Western blot analysis, cells were seeded in 6-well dishes the day before treatment to adhere at 70–80% confluency.
(§3) Cell pellets of all PDAC samples were lysed via adding a buffer containing 150 mM NaCl, 50 mM Tris/HCl (pH 7.4), 1% Triton X-100, 10 mM EDTA, 1 mM PMSF, 10 mM orthovanadate, and 1% aprotinin, incubating on ice for 1 h with vortexing every 15 minutes. Lysates were cleared of cell debris by centrifugation at 10,000 ×g at 4 °C for 10 min. […] Lysates were then clarified of cell debris by centrifugation at 13,000 ×g at 4 °C for 15 min. Thereafter, the total protein concentrations were either determined immediately or the protein extracts were stored at −20 or −80 °C. Pellets for samples shown in Fig. 6 and Supplementary Fig. 6 were lysed in 120 µL lysis buffer (50 mM Tris pH 8.0, 150 mM NaCl, 1% (v/v) IGEPAL, 0.5% (w/v) Na-deoxycholate, 0.1% (w/v) SDS) supplemented with 1x EDTA-free inhibitor protease cocktail (cOmplete, Roche) for 15 min at 4 °C. 0.2 µL Turbonuclease (Sigma Aldrich) and 5 mM MgCl2 were then added and lysates were incubated for 15 min at 4 °C. Cell debris was separated by centrifugation at 20,817 ×g for 15 min at 4 °C.
(§4) Protein concentrations of cell lysates were measured using the Pierce BCA Protein Assay (Thermo Fisher Scientific) or the Quick Start Bradford Protein Assay (Bio-Rad), following the manufacturers’ protocols. Measurements were recorded on Tecan Spark or Tecan Infinite M200 plate readers. Lysates were kept on ice throughout the entire process.
(§5) To separate proteins via SDS-PAGE, 10-20 µg of protein in lysis buffer was diluted with SDS-PAGE loading buffer (for most blots containing DTT or 2-mercaptoethanol) and denatured at 95 °C for 5 min. Protein separation was conducted at 95–110 V using the Mini-PROTEAN electrophoresis system (Bio-Rad). Proteins were then transferred to PVDF or nitrocellulose membranes using the Trans-Blot Turbo system (Bio-Rad) with the Trans-Blot Turbo RTA Kit for PVDF membranes. Prior to transfer, membranes were activated by soaking in 100% ethanol (for PVDF) or distilled water (for nitrocellulose) and proteins were transferred using the Mixed MW or the standard (1.0 A, 25 V, 30 min) protocol.
(§6) After transfer, membranes were blocked in 5% (w/v) milk/TBS-T for 1 h and then washed three times for 10 min with TBS-T. They were incubated overnight at 4 °C with the primary antibody in 5% (w/v) milk/TBS-T or 1% (w/v) BSA/TBS-T. Membranes were then washed three times for 10 min with TBS-T and incubated with horseradish peroxidase (HRP)-conjugated secondary antibodies in a solution of 5% (w/v) BSA/TBS-T or 1% (w/v) milk/TBS-T for 1 h at room temperature. PBS-T was used for blots shown in Fig. 6 and Supplementary Fig. 6.
(§7) Membranes were incubated with Clarity Western ECL substrate (Bio-Rad) for PDAC samples or Pierce ECL Western Blotting-Substrate (Thermo Fisher Scientific) for melanoma. Chemiluminescent signals were detected with a ChemiDoc Imaging System (Bio-Rad) for PDAC samples or with a ECL Chemostar Imager (Intas Science Imaging) for melanoma samples.
(§8) Densitometric quantification of band intensities for Fig. 2c, d was performed using the ImageJ software.

HiBiT-USP7 = HiBiT-USP7 (Homo sapiens, UniProt Q93009); assay: HiBiT USP7 degradation assay, MV4-11 cells; conditions: for DC50: MV4-11 HiBiT-USP7, 24 h
Chain of HiBiT-USP7 (Q93009 whole entry, the tested form may be a part): as the sequence (Q93009 whole entry) above
Method: HiBiT-USP7 construct was cloned by extraction of USP7 fragment from plasmid pQHA-USP7 WT puroR (Addgene #46753) using appropriate restriction sites. The USP7 fragment was then ligated into the pRRL-PGK-HiBiT entry vector to generate the plasmid.
Lentiviral infection was used to generate stable a MV4-11 HiBiT cell line. Lentivirus was produced using plasmids psPAX2, pMD2.G, and HiBiT-USP7 plasmid in HEK293 cells. MV4-11 cells were infected with filtered virus supernatant and selected after 48 h of infection for the generation of the stable MV4-11^HiBiT-USP7 cell line.
The assay was performed as described previously. Briefly, MV4-11^HiBiT-USP7 cells were seeded and treated with compounds for the indicated time. Nano-Glo HiBiT Lytic Detection System (Promega) was used for the assay and luminescence was measured on a Tecan Spark microplate reader (Tecan). DC50 values were calculated using the sigmoidal dose-response (four parameters) equation in GraphPad Prism and are given as the concentration where 50% of the total signal was remaining. Dmax values are given as the maximum degradation observed at any concentration.

USP7 [2] = molecular target: T1, USP7; assay: USP7 degradation, Western blot densitometry, Ma-Mel-47 cells; conditions: for USP7 levels in time course (in words): over 24 h; for USP7 degradation (in words): 24 h; for DC50: read-out: DC50 (half-maximal degradation concentration)
Method: as §1, §2, §3, §4, §5, §6, §7, §8

[3] = Panc89, 24 h, Western blot densitometry
[4] = MV4-11, MV4-11 HiBiT-USP7, 24 h
[5] = Ma-Mel-47, 24 h, Western blot densitometry

Compound | USP7 levels in time course (in words) (USP7 [1]; Panc89, 1 µM, over 24 h) | HiBiT-USP7 levels (in words) (HiBiT-USP7; MV4-11 HiBiT-USP7, 6 h and 24 h) | USP7 levels in time course (in words) (USP7 [2]; Ma-Mel-47, 1 µM) | USP7 degradation (in words) (USP7 [1]; Panc89, 5 µM, Western blot) | Concentration of near complete degradation of USP7 (USP7 [1]; Panc89, 24 h) [nM] | Dmax (USP7 [1]; [3]) [%] | DC50 (USP7 [1]; [3]) [µM] | Dmax (HiBiT-USP7; MV4-11, MV4-11 HiBiT-USP7, 6 h) [%] | Dmax (HiBiT-USP7; [4]) [%] | DC50 (HiBiT-USP7) [µM] | USP7 degradation (in words) (USP7 [2]; Ma-Mel-47, 1 µM) | DC50 (USP7 [2]; [5]) [µM] | Time after which USP7 degradation was observed (USP7 [1]; Panc89, 1 µM) | USP7 degradation (in words) (USP7 [1]; Panc89, increasing concentrations) | Time after which USP7 degradation was observed (USP7 [2]; Ma-Mel-47, 1 µM) [h] | USP7 degradation (in words) (USP7 [2]; Ma-Mel-47, 5 µM, Western blot) | Dmax (USP7 [2]; [5]) [%]
Cc1ncsc1-c1ccc(CNC(=O)[C@@H]2C[C@H](O)CN2C(=O)[C@@H](NC(=O)[C@H]2CC[C@H](C(=O)N3CCN(c4ccc(-n5ncc6c(=O)n(CC7(O)CCN(C(=O)C[C@@H](C)c8ccccc8)CC7)cnc65)cc4)CC3)CC2)C(C)(C)C)cc1 [NK245] | did not reduce protein levels | partial reduction of USP7 levels | did not reduce protein levels |  |  |  |  |  |  |  |  |  |  |  |  |  | 
Cc1ncsc1-c1ccc([C@H](C)NC(=O)[C@@H]2C[C@@H](O)CN2C(=O)[C@@H](NC(=O)[C@H]2CC[C@H](C(=O)N3CCN(c4ccc(-n5ncc6c(=O)n(CC7(O)CCN(C(=O)C[C@@H](C)c8ccccc8)CC7)cnc65)cc4)CC3)CC2)C(C)(C)C)cc1 [NK250] |  |  | weak effects | complete degradation | ~100 | 98 | 0.008 | 87 | 90 to 92 | 0.004 | not able to fully degrade USP7 | 0.154 ± 0.038 |  |  |  |  | 
Cc1ncsc1-c1ccc([C@H](C)NC(=O)[C@@H]2C[C@@H](O)CN2C(=O)[C@@H](NC(=O)C23C4C5C2C2C3C4C52C(=O)N2CCC(C3CCN(c4ccc(-n5ncc6c(=O)n(CC7(O)CCN(C(=O)C[C@@H](C)c8ccccc8)CC7)cnc65)cc4)CC3)CC2)C(C)(C)C)cc1 (some centres unmarked) [NK266] |  |  |  |  |  |  | 0.049 | 74 | 90 to 92 | 0.024 |  | 0.029 | 16 h and 16 to 24 h | near complete degradation of USP7 | 16 | higher potency | 94
